Experimental data as given in patent US7033829B2, “Method to inhibit cell growth using oligonucleotides” (Trustees of Boston University, priority 2000, dated 2006).
Oligonucleotides are written 5' to 3', each unit as a sugar letter and its base; * is a phosphorothioate linkage, no mark a phosphodiester; rarer units and linkages stand in square brackets, end groups in braces. Plain capitals give the bases only. d = 2'-deoxy (DNA); {P} = phosphate

Key:
[1] = system: serine 15-phosphorylated p53, total p53, E2F1; assay: Western blot of p53 serine 15 phosphorylation and E2F1 in normal control fibroblasts; type: cell-based, human; conditions: 40 μM
Protocol: Because the serine 15 site on p53 is known to be phosphorylated in an ATM-dependent manner after exposure to ionizing radiation (IR), we wished to examine the role of ATM in E2F1 induction and p53 serine 15 phosphorylation in response to the 11 mer-1. Fibroblasts from a patient with ataxia telangiectasia (AT) known to lack functional ATM protein, and age-matched normal control fibroblasts (N) were treated with either diluent, 40 μM 11mer-1, sham irradiation or IR (10 Gy). Cells were collected 3 hours (sham or IR) or 48 hours (diluent, 11mer-1) for western blot analysis to detect serine 15-phosphorylated p53 and total p53. In normal fibroblasts, the 11mer-1 induced a 10–15 fold increase in the level p53 phosphorylation on serine 15 compared to diluent-treated controls.

[2] = system: p53-null osteosarcoma cell line (Saos-2); assay: FACS cell cycle analysis of Saos-2 cells; type: cell-based, human; conditions: 40 μM; 48 hours
From the text: In order to determine whether these oligonucleotides similarly affect other human cell types and to investigate the role of p53, we treated a squamous cell carcinoma line (SCC12F) (Rheinwald, J. G., et al., 1983, Human carcinogenesis. pp. 86–96. Academic Press (New York)) that over-expresses a presumptively mutated p53 (Eller, M. S. and B. A. Gilchrest. 2000, Pigment Cell Res. 13: 94–97) and a p53-null osteosarcoma cell line (Saos-2) (Wang, L. H., et al., 1998, Anticancer Res 18: 321–325) with either diluent alone, 11mer-1, 11mer-2 or 11mer-3. Cultures were analyzed by FACS after 48 hours (FIGS. 33A–33H). […] Although the percentage of cells in the S-phase in 11mer-1-treated SCC12F and Saos-2 cells was virtually identical (53±6% and 52±1%, respectively), the G0/G1 and G2/M content of the two cell types were somewhat different. This may reflect differential uptake of the oligonucleotide leading to dose-dependent differences, and/or different pathways acting in these cells to control the cell cycle. No apoptotic response to the oligonucleotides was detected in either cell type within 72 hours.

p95/Nbs1 = assay: Modification / phosphorylation of p95/Nbs1 (western blot); type: cell-based, human
Protocol: Cells were plated at a density of 180,000 cells/ml in RPMI 1640 medium supplemented with 3% FBS. Cells were treated with 40 μM of either of the oligonucleotides for 72 hours. Cells were then collected, washed and fixed for 30 minutes in 4% paraformaldehyde and then permeabilized with 0.1% Triton X-100 for 2 minutes. The TUNEL assay was carried out with components and instructions of the In Situ Cell Death Detection Kit using fluorescein-labeled dUTP from Boehringer Mannheim. TUNEL-positive cells were detected by FACS analysis and confocal microscopy. Cellular Uptake of Oligonucleotides For confocal analysis, Jurkat cells were plated on Permanox chamber slides (Lab-Tek, Naperville, Ill.) and treated for 4 hours with fluorescein phosphoramidite (FAM)-labeled oligonucleotides (Research Genetics, Inc., Huntsville, Ala.). […] Uptake of the oligonucleotides was assessed in 5–10 μm sections with a Carl Zeiss LSM 510 confocal laser microscope. […] Fluorescence was measured on the FL-1 channel. […] Antibody Ab-6 (DO-1 clone, Oncogene Research Products, Cambridge, Mass.) detected p53; antibody KH95 (Santa Cruz Biotechnology, Inc., Santa Cruz, Calif.) detected E2F1; antibody Ab-4 (Oncogene Research products) detected p73. Phospho-p53 (serine 15) was detected using the #9284 polyclonal antibody and phospho-p95/Nbs1 (serine 343) was detected by a phospho-p95/Nbs1-specific polyclonal antibody, both antibodies from Cell Signaling Technology (Beverly, Mass.). p95/Nbs1 antibody (#NB-100-143, Novus Biologicals, Littleton, Colo.) and an actin antibody (I-19, Santa Cruz Biotechnology, Santa Cruz, Calif.) were also used. […] After the indicated times, total protein was collected and analyzed by 8% PAGE and western blot using a polyclonal antibody to p95/Nbs1 (#NB-100-143, Novus Biologicals, Littleton, Colo.). […] Telomere length was determined essentially as described by van Steensel and de Lange (van Steensel, B. and T. de Lange. 1997, Nature 385: 740–743) using the Telo TAGGG Telomere Length Assay from Roche Molecular Biochemicals (Indianapolis, Ind.) and the protocol supplied by the manufacturer. […]

TNF-α gene = assay: TNFα promoter CAT reporter transgene in skin; type: in vivo, mice; conditions: intracutaneous pTpT 100 μM; LPS 1 μg/ml
Protocol: In another experiment, TNF-α gene activation was measured by utilizing mice carrying a CAT reporter transgene bearing the entire TNFα promoter and 3′-untranslated region. Transgenic mice were subjected to the following treatment prior to skin assay for CAT expression: UVB irradiation (200–700 J/m^2), intracutaneous injection of pTpT (100 μM); lipopolysaccharide (LPS 1 μg/ml) as positive control, or vehicle alone.

## pGTTAGGGTTAG (DNA {P}-dGdTdTdAdGdGdGdTdTdAdG) [SEQ ID NO: 5]
[1]
  E2F1 levels: induced E2F1 levels
[1]; 48 hours
  increase in p53 phosphorylation on serine 15 compared to diluent: 10–15 fold
[1]; young adult donor, 48 hours
  level of total p53: minimally induced
[2]
  cells in the S-phase: 52±1%
p95/Nbs1; Jurkat cells, 48, 72 and 96 hours
  shift in p95/Nbs1 migration: detects such a shift in p95/Nbs1 migration
p95/Nbs1; SCC12F cells
  shift in p95/Nbs1 migration: respond identically
p95/Nbs1; fibroblasts
  phosphorylation of p95/Nbs1 (phospho-specific antibody): phosphorylation of p95/Nbs1 is induced

## thymidine dinucleotide [pTpT]
TNF-α gene
  CAT activity in skin: CAT activity was detected
